We go through three compounds from US20110280940A1, “Di-Vanilloyl And Tri-Vanilloyl Derivatives For Use In Anti-Cancer Therapy” (priority 2008, published 2011).

Structures are written as SMILES.

A word on the IC50: it is the concentration that gives 50% inhibition.

One assay relates to 255 protein kinases. The assay can be described thus: Kinase inhibition profile of DLT95-Cl at 20 μM (33 PanQinase). The following applies: over the 255 kinases screened. It is filed as biochemical, human. How it is done:
In view of the results in FIG. 5 and Table 7, the inventors performed a broader analysis on impairment of 255 protein kinases by DLT95-Cl compound of the invention.
255 kinases where tested with DLT95-Cl at 20 μM to establish the kinase inhibition profile of the compound.
The kinase inhibition profile of DLT95-Cl at 20 μM was determined using 255 protein kinases. Residual activity values were measured by testing each compound at one concentration in duplicate in each kinase assay. A radiometric protein kinase assay (33 PanQinase®Activity Assay) was used for measuring the kinase activity of 250 protein kinases. All kinase assays were performed in 96-well flashPlates™ from Perkin Elmer (Boston, Mass., USA) in a 50 μl reaction volume. […]
Incorporation of ^33Pi (counting of “cpm”) was determined with a microplate scintillation counter (Microbeta, Wallac).
For each kinase, the median value of the cpm of three wells with complete reaction cocktails, but without kinase, was defined as “low control” (n=2). This value reflects unspecific binding of radioactivity to the plate in the absence of protein kinase but in the presence of the substrate. […] The residual activity (in %) for each compound well was calculated by using the following formula: Res. Activity (%)=100×[(cpm of compound−low control)/(high control−low control)]

The subject of another assay is CK1. The experiment in a line: Kinase activity assay, CK1. The conditions noted are these: 10 μM, 1% DMSO, 15 μM ATP; residual activity. Format: biochemical, porcine. How it is done: Buffer A: 10 mM MgCl2, 1 mM EGTA, 1 mM DTT, 25 mM Tris-HCl pH 7.5, 50 μg heparin/ml. Buffer C: 60 mM β-glycerophosphate, 15 mM p-nitrophenylphosphate, 25 mM Mops (pH 7.2), 5 mM EGTA, 15 mM MgCl2, 1 mM DTT, 1 mM sodium vanadate, 1 mM phenyl phosphate.
Kinase activities were assayed in Buffer A or C, at 30° C., at a final ATP concentration of 15 μM. Blank values were subtracted and activities expressed in % of the maximal activity, i.e. in the absence of inhibitors. Controls were performed with appropriate dilutions of DMSO.
CK1 (porcine brain, native) was assayed as described for CDK1 but using the CK1-specific peptide substrate […]pSAYSITA (Seq. ID NO 2) (Reinhardt et al., 2007, Protein Expr. & Purif. 54, 101-109), obtained from Millegen (Labege, France).

Assay [1] concerns PC-3 prostate cancer cells. The experiment in a line: MTT colorimetric assay, overall cell growth, PC-3. It is filed as cell-based, human. The following applies: Homo sapiens, 72 hours of incubation, read-out: In Vitro IC50 Growth Inhibitory Values, PC-3. Put shortly:
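Cells were seeded, left 24 h at 37 °C, then exposed to compound at molar concentrations from 10^-8 to 10^-4 M for 72 h at 37 °C, in sestuplicate. Mean OD gave % living cells versus untreated control.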

Turning to `O=C(OCc1cc(COC(=O)c2ccc(O)c(Cl)c2)cc(COC(=O)c2ccc(O)c(Cl)c2)c1)c1ccc(O)c(Cl)c1` [DLT95-Cl, [3,5-bis[(4-hydroxy-3-chloro-benzoyl)oxymethyl]phenyl]methyl 4-hydroxy-3-chloro-benzoate], in the assay with 255 protein kinases, the “number of kinases whose activity is ≧50% impaired” value was determined as 249.
Turning to `COc1cc(C(=O)OCCOC(=O)c2ccc(O)c(OC)c2)ccc1O` [DLT1, Ethane-1,2-diyl bis-(4-hydroxy-3-methoxybenzoate)], the “% ENZYMATIC ACTIVITY, Ckone” value in the assay with CK1 turned out to be 62%.
On to `COc1cc(C(=O)O)ccc1O` [vanillic acid, reference compound], for which the IC50 in assay [1] was > 1000 µM.
